US20100086931A1, “METHOD FOR ASSAYING ACTION OF ANTITUMOR AGENT USING DECREASE IN GENE EXPRESSION LEVEL AS INDEX” (Eisai R&D Management Co., Ltd., priority 2007, published 2010)

Tested on: peripheral blood mononuclear cells (PBMC)
Assay: qPCR (TaqMan) measurement of mRNA expression in PBMC treated with compound A
Format: cell-based, human
Settings: 30 nM; untreated cells = 1; corrected by 18S rRNA

CCC(O)C(C)C1OC1CC(C)(O)/C=C/C=C(\C)C1OC(=O)CC(O)CCC(C)(O)C(OC(=O)N2CCN(C3CCCCCC3)CC2)/C=C/C1C (stereo not shown) [E7107, (8E,12E,14E)-7-((4-Cycloheptylpiperazin-1-yl)carbonyl)oxy-3,6,16,21-tetrahydroxy-6,10,12,16,20-pentamethyl-18,19-epoxytricosa-8,12,14-trien-11-olide]
ZCCHC8 mRNA expression level (qPCR): 0.13
